Earlier results on one molecule are cited in patent US6051572A, “Azetidine, pyrrolidine and piperidine derivatives” (Merck Sharp & Dohme Ltd., priority 1995, dated 2000).

The structures appear in SMILES notation.

For the series the following is noted: therapeutic doses.

On to `CNS(=O)(=O)Cc1ccc2[nH]cc(CCN(C)C)c2c1` [sumatriptan], for which the “adverse events in humans” value is “certain adverse cardiovascular events”.
